Source: ChEMBL document CHEMBL4680256, “Indole chalcones: Design, synthesis, in vitro and in silico evaluation against Mycobacterium tuberculosis” (Eur J Med Chem, 2020)
Converted amounts (≈) assume the structure as drawn.

Columns and labels:
[1] = tested on: Mycobacterium tuberculosis; experiment: Antimycobacterial activity against Mycobacterium tuberculosis H37Rv assessed as inhibition of bacterial growth at 100 ug/ml preincubated for 72 hrs followed by phAE202 and Cacl2 addition and measured after 4 hrs by luciferase reporter mycobacterio-phage assay; format: functional; conditions: time 76 hrs
[2] = tested on: Mycobacterium tuberculosis; experiment: Antimycobacterial activity against Mycobacterium tuberculosis H37Rv assessed as reduction in bacterial growth preincubated for 72 hrs followed by phAE202 and Cacl2 addition and measured after 4 hrs by luciferase reporter mycobacterio-phage assay; format: functional; conditions: time 76 hrs
[3] = tested on: Mycobacterium tuberculosis; experiment: Antimycobacterial activity against Mycobacterium tuberculosis H37Rv assessed as inhibition of bacterial growth at 50 ug/ml preincubated for 72 hrs followed by phAE202 and Cacl2 addition and measured after 4 hrs by luciferase reporter mycobacterio-phage assay; format: functional; conditions: time 76 hrs
[4] = Cytotoxicity against human Mo7e cells assessed as cell viability at 10 to 50 ug/ml incubated for 24 hrs by WST-1 assay relative to control; format: cell-based, M07E; conditions: at 10 to 50 µg/mL, dose 10-50 µg/ml, read-out: Activity
[5] = Cytotoxicity against mouse BA/F3 cells assessed as cell viability at 10 to 50 ug/ml incubated for 24 hrs by WST-1 assay relative to control; format: cell-based, BaF3; conditions: at 10 to 50 µg/mL, dose 10-50 µg/ml, read-out: Activity

| SMILES | inhibition at 100 µg/mL [1] | MIC [2] | inhibition at 50 µg/mL [3] | viability at 24 h [4] | viability at 24 h [5] |
| --- | --- | --- | --- | --- | --- |
| O=C(/C=C/c1c[nH]c2ccccc12)c1ccc(-c2ccsc2)cc1 | 63.4% | 197 µM (≈ 64.9 µg/mL) | 62% |  |  |
| COc1cccc(C(=O)/C=C/c2c[nH]c3ccccc23)c1 | 36.7% | > 360 µM | 27.1% |  |  |
| O=C(/C=C/c1c[nH]c2ccccc12)c1ccc(-c2ccc[nH]2)cc1 | 49.4% | > 423 µM | 26.4% |  |  |
| O=C1CCC/C1=C\c1cc2ccccc2[nH]1 | 86.3% | 236 µM (≈ 49.9 µg/mL) | 84.3% | > 80% | > 60% |
| O=C(/C=C/c1c[nH]c2ccccc12)c1ccc(O)cc1 | 55.1% | 189 µM (≈ 49.8 µg/mL) | 54.9% |  |  |
| O=C(/C=C/c1c[nH]c2ccccc12)c1ccc(F)cc1 | 54.2% | 188 µM (≈ 49.9 µg/mL) | 50.3% |  |  |
| NNC(=O)c1ccncc1 [ISONIAZID] | > 99% | 1.4 µM (≈ 0.192 µg/mL) |  |  |  |
| O=C(/C=C/c1c[nH]c2ccccc12)c1cccnc1 | 70.7% | 201 µM (≈ 49.9 µg/mL) | 63.1% |  |  |
| Cc1ccc(C(=O)/C=C/c2c[nH]c3ccccc23)cc1 | 50.9% | > 382 µM | 41.7% |  |  |
| O=C(/C=C/c1c[nH]c2ccccc12)c1cccc(C(F)(F)F)c1 | 26.3% | > 317 µM | 24.5% |  |  |
| O=C(/C=C/c1c[nH]c2ccccc12)c1ccc(C(F)(F)F)cc1 | 31.2% | > 317 µM | 29.7% |  |  |
| O=C(/C=C/c1c[nH]c2ccccc12)c1ccncc1 | 64.2% | 201 µM (≈ 49.9 µg/mL) | 58.4% |  |  |
| O=C(/C=C/c1c[nH]c2ccccc12)c1ccc(Br)cc1 | 65.9% | 155 µM (≈ 50.6 µg/mL) | 64.9% |  |  |
| O=C(/C=C/c1c[nH]c2ccccc12)c1ccc2ccccc2c1 | 41.8% | > 336 µM | 30.8% |  |  |
| O=C(/C=C/c1c[nH]c2ccccc12)c1ccc(-n2ccnc2)cc1 | 70.7% | 159 µM (≈ 49.8 µg/mL) | 63.6% |  |  |
| O=C(/C=C/c1c[nH]c2ccccc12)c1ccc(Cl)cc1Cl | 55.2% | 164 µM (≈ 51.9 µg/mL) | 52.3% |  |  |
| O=C(/C=C/c1c[nH]c2ccccc12)c1ccc(-c2cccs2)cc1 | 87.2% | 197 µM (≈ 64.9 µg/mL) | 82% | > 80% | > 60% |
| CO[C@H]1/C=C/O[C@@]2(C)Oc3c(C)c(O)c4c(O)c(c(/C=N/N5CCN(C)CC5)c(O)c4c3C2=O)NC(=O)/C(C)=C\C=C\[C@H](C)[C@H](O)[C@@H](C)[C@@H](O)[C@@H](C)[C@H](OC(C)=O)[C@@H]1C [RIFAMPIN] | > 99% | 2.4 µM (≈ 1.98 µg/mL) |  |  |  |
| Nc1cccc(C(=O)/C=C/c2c[nH]c3ccccc23)c1 | 48.7% | > 381 µM | 37.2% |  |  |
| O=C(/C=C/c1c[nH]c2ccccc12)c1ccc(-c2ccoc2)cc1 | 87.7% | 210 µM (≈ 65.8 µg/mL) | 85.3% | > 80% | > 60% |
| COc1ccc(C(=O)/C=C/c2c[nH]c3ccccc23)cc1OC | 31.7% | > 325 µM | 27.1% |  |  |
| O=C(/C=C/c1c[nH]c2ccccc12)N1CCN(c2ccc(O)cc2)CC1 | 76.4% | 143 µM (≈ 49.7 µg/mL) | 63.8% |  |  |
| O=C(/C=C/c1c[nH]c2ccccc12)c1ccc2c(c1)OCO2 | 75.7% | 171 µM (≈ 49.8 µg/mL) | 66.8% |  |  |
| O=C(/C=C/c1c[nH]c2ccccc12)c1ccccn1 | 62% | 201 µM (≈ 49.9 µg/mL) | 53.1% |  |  |
| O=C(/C=C/c1c[nH]c2ccccc12)c1ccc(Cl)cc1 | 50.6% | > 355 µM | 48.6% |  |  |
| O=C1CCCC/C1=C\c1cc2ccccc2[nH]1 | 62% | 221 µM (≈ 49.8 µg/mL) | 53.1% |  |  |
| O=C(/C=C/c1c[nH]c2ccccc12)c1cccc([N+](=O)[O-])c1 | 51.7% | > 342 µM | 48.7% |  |  |
